Test results from PubChem BioAssay AID743479 (Broad Institute, 2014).
Inconclusive results are not listed. Calls of active or inactive are those of the source.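 Rule for the calls: active = fitted curve crosses 35% inhibition of luciferase signal below 10 µM, corrected for cell viability; inconclusive = no clear call, values can overlap the other calls; inactive = activity opposite to the expected decrease, otherwise the rest.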

System: A673 NR0B1-luciferase reporter, viability-normalised luminescence
Assay: reduction of NR0B1-luciferase signal in A673 cells – cell-based, luciferase luminescence, dry powder, dose response (AID 743479)
Conditions: not given
Work on COc1cccc(C2C(C#N)=C(N)Oc3cc(N)ccc32)c1 (stereo not given) yielded an AC35 of 0.629 µM. COc1ccc(C2=Nn3c(nnc3-c3ccccc3F)SC2)cc1OC gave an AC35 of 11.5 µM. COc1ccc(C2=Nn3c(nnc3-c3ccccc3Cl)SC2)cc1OC showed an AC35 of 0.69 µM. In the case of COc1ccc(-c2ccc3c(c2)[C@H]2[C@H](CCN2S(=O)(=O)c2ccc(OC)cc2)[C@@H](CO)N3)cc1, the AC35 is reported as 3.57 µM. N#CC1=C(N)Oc2cc(N)ccc2C1c1cccc(Br)c1 (stereo not given) showed an AC35 of 0.223 µM. In the case of COc1ccc(-c2cc(NC=O)c3ncc(-c4ccc(OC)c(OC)c4)n3c2)cc1, the AC35 is reported as 0.778 µM. COc1ccccc1-c1nnc2n1N=C(c1ccc3c(c1)OCO3)CS2 showed an AC35 of 0.0242 µM. N#CC1=C(N)Oc2ccc3ccccc3c2C1c1cccc(F)c1 (stereo not given) gave an AC35 of 0.968 µM. In the case of COc1ccc(S(=O)(=O)N2CC[C@@H]3[C@@H](CO)N(C)c4ccc(-c5ccc(F)cc5)cc4[C@@H]32)cc1, the AC35 is reported as 2.85 µM. Work on COc1cc([C@@H]2c3cc4c(cc3[C@@H](O[C@@H]3O[C@@H]5CO[C@@H](C)O[C@H]5[C@H](O)[C@H]3O)[C@H]3COC(=O)[C@H]23)OCO4)cc(OC)c1O yielded an AC35 of 3.01 µM. Work on COc1ccc(C2=Nn3c(nnc3-c3ccccc3)SC2)cc1OC yielded an AC35 of 42.7 µM. With COc1ccccc1S(=O)(=O)N1CC[C@@H]2[C@@H](CO)Nc3ccc(-c4ccc(C#N)cc4)cc3[C@@H]21 the AC35 was 15.5 µM. With Nc1ccn([C@@H]2O[C@H](CO)[C@H](O)C2O)c(=O)n1 (stereo not given in full) the AC35 was 1.26 µM. With COc1ccc(S(=O)(=O)N2CC[C@@H]3[C@H](CO)Nc4ccc(-c5ccc(C#N)cc5)cc4[C@@H]32)cc1 the AC35 was 8.44 µM. In the case of N#CC1=C(N)Oc2cc(N)ccc2C1c1ccccc1Cl (stereo not given), the AC35 is reported as 26.6 µM. In the case of Nc1ncnc2c1c(-c1cccc(OCc3ccccc3)c1)cn2C1CC(CN2CCCC2)C1 (stereo not given), the AC35 is reported as 17.3 µM. N#Cc1ccc(-c2ccc3c(c2)[C@H]2[C@H](CCN2S(=O)(=O)c2ccccc2F)[C@@H](CO)N3)cc1 gave an AC35 of 7.82 µM. N#CC1=C(N)Oc2cc3c(cc2C1c1cccc(Br)c1)OCO3 (stereo not given) gave an AC35 of 0.0564 µM. With CC(C)N1c2ccccc2C(c2ccc(F)cc2)C1/C=C/C(O)CC(O)CC(=O)O (stereo not given) the AC35 was 7.59 µM. COc1ccc(S(=O)(=O)N2CC[C@@H]3[C@@H](CO)Nc4ccc(-c5cccc(C#N)c5)cc4[C@@H]32)cc1 showed an AC35 of 4.71 µM. Work on COc1cccc(S(=O)(=O)N2CC[C@@H]3[C@@H](CO)Nc4ccc(-c5ccc(C#N)cc5)cc4[C@@H]32)c1 yielded an AC35 of 28.5 µM. In the case of COc1ccc(NC(=O)Nc2ccc3c(c2)C(=O)N([C@@H](C)CO)C[C@H](C)[C@H](CN(C)Cc2ccc4c(c2)OCO4)O3)cc1, the AC35 is reported as 18.8 µM. Molecule Cc1nc(Nc2ncc(C(=O)Nc3c(C)cccc3Cl)s2)cc(N2CCN(CCO)CC2)n1 has an AC35 of 18.9 µM. With CC1(C)CC(c2nc(-c3ccc4ccc(-c5ccccc5)nc4c3)c3c(N)nccn23)C1 the AC35 was 37.9 µM. For CN1c2ccc(-c3ccc(C#N)cc3)cc2[C@H]2[C@H](CCN2S(=O)(=O)c2cccc(F)c2)[C@H]1CO, the AC35 was 2.35 µM. Molecule COc1ccc(C2C(C#N)=C(N)Oc3cc(N)ccc32)cc1 (stereo not given) has an AC35 of 53.2 µM. COc1ccccc1C1C(C#N)=C(N)Oc2cc(N)ccc21 (stereo not given) showed an AC35 of 53.1 µM. Work on COC(=O)c1ccc(C2C(C#N)=C(N)Oc3cc(N)ccc32)cc1 (stereo not given) yielded an AC35 of 40.2 µM. For CN1c2ccc(-c3ccc(C#N)cc3)cc2[C@H]2[C@H](CCN2S(=O)(=O)c2ccc(F)cc2)[C@H]1CO, the AC35 was 33.6 µM. In the case of N#CC1=C(N)Oc2cc(N)ccc2C1c1ccccc1 (stereo not given), the AC35 is reported as 16.6 µM. Work on CN(C)c1ccc2c(c1)OC(N)=C(C#N)C2c1cccc(F)c1 (stereo not given) yielded an AC35 of 0.0309 µM. For COc1ccc(C(=O)CC2(O)C(=O)Nc3c(Cl)ccc(Cl)c32)cc1 (stereo not given), the AC35 was 3.21 µM. Work on CCC(C)(C)C(=O)O[C@H]1C[C@@H](C)C=C2C=C[C@H](C)[C@H](CC[C@@H]3C[C@@H](O)CC(=O)O3)[C@H]21 yielded an AC35 of 55 µM. CN(C(=O)CCCOc1ccc2[nH]c(=O)ccc2c1)C1CCCCC1 showed an AC35 of 49.6 µM. With O=C(c1cc(Cc2n[nH]c(=O)c3ccccc23)ccc1F)N1CCN(C(=O)C2CC2)CC1 the AC35 was 238 µM. Molecule N#Cc1ccc(-c2ccc3c(c2)[C@H]2[C@H](CCN2S(=O)(=O)c2cccc(F)c2)[C@@H](CO)N3)cc1 has an AC35 of 4.95 µM. COc1cccc2c1C(=O)c1c(O)c3c(c(O)c1C2=O)C[C@@](O)(C(=O)CO)C[C@@H]3O[C@H]1C[C@H](N)[C@H](O)[C@H](C)O1 gave an AC35 of 15.1 µM. In the case of C[C@@]1(C(=O)Nc2ccc(F)nc2)CCCN1c1nc(Nc2cc(C3CC3)[nH]n2)c2cccn2n1, the AC35 is reported as 2.9 µM. COc1ccc(S(=O)(=O)N(C(C)=O)c2ccc(OC(C)=O)c3ccccc23)cc1[N+](=O)[O-] showed an AC35 of 2.81 µM. For O=C(Nc1c(Cl)cncc1Cl)c1ccc(OC(F)F)c(OCC2CC2)c1, the AC35 was 56.9 µM. For N#CC1=C(N)Oc2cc(N)ccc2C1c1ccc(Cl)cc1 (stereo not given), the AC35 was 43 µM. In the case of CCOC(=O)CCNc1cc(N2CCc3ccccc3CC2)nc(-c2ccccn2)n1, the AC35 is reported as 32.8 µM. Cc1ccc(S(=O)(=O)N2CC[C@@H]3[C@@H](CO)Nc4ccc(-c5ccc(C#N)cc5)cc4[C@@H]32)cc1 gave an AC35 of 17.2 µM. For N#CC1=C(N)Oc2cc(OC(=O)c3ccccc3)ccc2C1c1cccc(Br)c1 (stereo not given), the AC35 was 3.55 µM. For COc1ccc(OC)c(-c2nnc3n2N=C(c2ccc(OC)c(OC)c2)CS3)c1, the AC35 was 0.0319 µM. In the case of N#CC1=C(N)Oc2cc(N)ccc2C1c1cccc(F)c1 (stereo not given), the AC35 is reported as 1.2 µM. COc1ccc(S(=O)(=O)N2CC[C@@H]3[C@@H](CO)Nc4ccc(-c5ccc(C#N)cc5)cc4[C@@H]32)cc1 showed an AC35 of 3.37 µM. For COc1ccc(CNc2nc(N3CCC[C@H]3CO)ncc2C(=O)NCc2ncccn2)cc1Cl, the AC35 was 45.2 µM. With N#CC1=C(N)Oc2cc(O)ccc2C1c1cccc(Br)c1 (stereo not given) the AC35 was 2.2 µM. Work on CC[C@@]1(O)C(=O)OCc2c1cc1n(c2=O)Cc2cc3c(CN(C)C)c(O)ccc3nc2-1 yielded an AC35 of 0.112 µM. COc1ccccc1-c1nnc2n1N=C(c1ccc(O)c(O)c1)CS2 showed an AC35 of 3.93 µM. CCC(C)C(=O)OC1CC(C)C=C2C=CC(C)C(CCC(O)CC(O)CC(=O)O)C21 (stereo not given) gave an AC35 of 55.5 µM. In the case of CN1CCN(CCOc2cc(OC3CCOCC3)c3c(Nc4c(Cl)ccc5c4OCO5)ncnc3c2)CC1, the AC35 is reported as 17.3 µM. Cc1ccccc1C1C(C#N)=C(N)Oc2cc(N)ccc21 (stereo not given) gave an AC35 of 40.9 µM. With N#CC1=C(N)Oc2cc(N)ccc2C12C(=O)Nc1ccc(Br)cc12 (stereo not given) the AC35 was 43.3 µM. In the case of Clc1ccccc1-c1nnc2n1N=C(c1ccc3c(c1)OCO3)CS2, the AC35 is reported as 0.75 µM. For CCc1c2c(nc3ccc(O)cc13)-c1cc3c(c(=O)n1C2)COC(=O)C3(O)CC (stereo not given), the AC35 was 0.00781 µM. Cc1cccc(C2C(C#N)=C(N)Oc3cc(N)ccc32)c1 (stereo not given) showed an AC35 of 0.705 µM. COc1ccc(C2=Nn3c(nnc3-c3ccccc3OC)SC2)cc1OC showed an AC35 of 0.131 µM. N#CC1=C(N)Oc2cc(N)ccc2C1c1ccc2ccccc2c1 (stereo not given) showed an AC35 of 19.4 µM. Molecule COc1ccc(-c2ccc3c(c2)[C@H]2[C@H](CCN2S(=O)(=O)c2ccc(OC)cc2)[C@@H](CO)N3C)cc1 has an AC35 of 4.43 µM. Work on COc1cc(C2C(C#N)=C(N)Oc3cc(N(C)C)ccc32)cc2c1OCO2 (stereo not given) yielded an AC35 of 0.186 µM. Molecule Cn1cc(-c2ccncc2)c(-c2ccc(OCc3ccc4ccccc4n3)cc2)n1 has an AC35 of 51.7 µM. In the case of Cc1ccc([N+](=O)[O-])cc1S(=O)(=O)N(C)C, the AC35 is reported as 59.7 µM. Cc1cc(Nc2cc(N3CCN(C)CC3)nc(Sc3ccc(NC(=O)C4CC4)cc3)n2)n[nH]1 gave an AC35 of 39.5 µM. Cc1ccc(C2C(C#N)=C(N)Oc3cc(N)ccc32)cc1 (stereo not given) gave an AC35 of 54.6 µM.

System: not listed separately
Assay: as above
Conditions: A673 NR0B1-luciferase reporter, viability-normalised luminescence; at 4.2 µM (top of the series)
With CCN(CCO)CCCOc1ccc2c(Nc3cc(CC(=O)Nc4cccc(F)c4)[nH]n3)ncnc2c1 the activity change, negative = inhibition was 0.506% (inactive).

Same assay, conditions: A673 NR0B1-luciferase reporter, viability-normalised luminescence; at 6.8 µM (top of the series)
In the case of C=C([C@@H](O)[C@@H](C)O)[C@@H](OC)[C@]1(C)Cc2cc3cc(O[C@H]4CC(OC5CC(O)C(O)C(C)O5)C(O)C(C)O4)cc(O)c3c(O)c2C(=O)[C@H]1OC1CC(OC2CC(OC3CC(C)(O)C(O)C(C)O3)C(O)C(C)O2)C(O)C(C)O1 (stereo not given in full), the activity change, negative = inhibition is reported as 12.4% (inactive).

Same assay, conditions: A673 NR0B1-luciferase reporter, viability-normalised luminescence; at 16 µM (top of the series)
With Clc1ccc(-c2cnc3ccc(-c4ccccc4)cn23)cc1 the activity change, negative = inhibition was 38.6% (inactive).

Same assay, conditions: A673 NR0B1-luciferase reporter, viability-normalised luminescence; at 68 µM (top of the series)
For COc1cc(Nc2ncc3c(n2)-c2ccc(Cl)cc2C(c2c(F)cccc2OC)=NC3)ccc1C(=O)O, the activity change, negative = inhibition was 114% (inactive). In the case of COc1ccc(C2CNC(=O)C2)cc1OC1CCCC1 (stereo not given), the activity change, negative = inhibition is reported as -4.33% (inactive). In the case of CCCCc1ccc2nc(NC(=O)OC)[nH]c2c1, the activity change, negative = inhibition is reported as -8.52% (inactive). With COc1ccc(-c2cc(NC(C)=O)c3ncc(-c4ccc(OC)c(OC)c4)n3c2)cc1 the activity change, negative = inhibition was -21.4% (inactive). With C[C@]1(c2nc3c(C(N)=O)cccc3[nH]2)CCCN1 the activity change, negative = inhibition was -14.9% (inactive).

Same assay, conditions: A673 NR0B1-luciferase reporter, viability-normalised luminescence; at 135 µM (top of the series)
In the case of O=P1(NCCCl)OCCCN1CCCl (stereo not given), the activity change, negative = inhibition is reported as 11.8% (inactive).
